Test results: patent US9198426B2, “Use of 5 pyridin-4-yl-1,3-thiazoles for controlling phytopathogenic fungi” (Bayer Intellectual Property GmbH, priority 2008, dated 2015)
Marks after values point to notes of the source that are not given here.

Columns and labels:
physchem = assay type: physicochemical
Fusarium graminearum = experiment: microbe, parasite or virus in culture; assay type: cell-based; conditions: 168 h, read-out: activity in the inhibition of DON/AcDON production
Fusarium proliferatum = experiment: Production of fumonisin FB1 by Fusarium proliferatum (microtitre plates); assay type: cell-based; conditions: 120 h, 5 days, 20° C., HPLC-MS/MS

CCc1nc(-c2ccc(F)cc2)c(-c2ccnc(NC(=O)C3CC3)c2)s1 [compound 86]
log p (physchem; pH 2.7): 3.22^[b]
log p (physchem; pH 7.8): 3.37^[c];

CCc1nc(-c2ccc(F)cc2)c(-c2ccnc(NC(=O)OC(C)C)c2)s1 [compound 94]
log p (physchem; pH 2.7): 4.08^[b]
log p (physchem; pH 7.8): 4.18^[c];

CCc1nc(-c2ccc(F)cc2)c(-c2ccnc(NC(C)c3ccccc3)c2)s1 (centres unmarked) [compound 61]
log p (physchem; pH 2.7): 2.39^[b]

CCc1nc(-c2ccc(F)cc2)c(-c2ccnc(NC3CCCC3)c2)s1 [compound 63]
log p (physchem; pH 2.7): 1.94^[b]

CCc1nc(-c2ccc(F)cc2)c(-c2ccnc(NC(=O)C(C)C)c2)s1 [compound 82]
log p (physchem; pH 2.7): 3.52^[b]
log p (physchem; pH 7.8): 3.66^[c];

CCc1nc(-c2ccc(F)cc2)c(-c2ccnc(NC(C)COC)c2)s1 (centres unmarked) [compound 70]
log p (physchem; pH 2.7): 1.78^[b]

Cc1cc(-c2sc(C(C)C)nc2-c2ccc(F)cc2)ccn1 [Ex. 100, 4-[4-(4-Fluorophenyl)-2-isopropyl-1,3-thiazol-5-yl]-2-methylpyridine]
chromatographic logP (physchem; pH 2.7): 2.1
chromatographic logP (physchem; pH 7.8): 4.06

CCc1nc(-c2ccc(F)cc2)c(-c2ccnc(NC(=O)c3cccs3)c2)s1 [compound 56]
log p (physchem; pH 2.7): 3.92^[b]

CCc1nc(-c2ccc(F)cc2)c(-c2ccnc(NC(=O)C3(C)CC3)c2)s1 [compound 95]
log p (physchem; pH 2.7): 3.89^[b]
log p (physchem; pH 7.8): 4.03^[c];

CCc1nc(-c2ccc(F)cc2)c(-c2ccnc(C)c2)s1 [Ex. 96, 4-[2-Ethyl-4-(4-fluorophenyl)-1,3-thiazol-5-yl]-2-methylpyridine]
chromatographic logP (physchem; pH 2.7): 1.68

CC(C)(C)c1nc(-c2ccc(F)cc2)c(-c2ccncc2)s1 [compound 46]
log p (physchem; pH 2.7): 3.29^[b]

CCc1nc(-c2ccc(F)cc2)c(-c2ccnc(NC(=O)C3CCC3)c2)s1 [compound 84]
log p (physchem; pH 2.7): 3.68^[b]
log p (physchem; pH 7.8): 3.82^[c];

CCc1nc(-c2ccc(F)cc2)c(-c2ccnc(NC(=O)CCc3ccccc3)c2)s1 [compound 55]
log p (physchem; pH 2.7): 4.23^[b]

CCc1nc(-c2ccc(Cl)s2)c(-c2ccncc2)s1 [compound 42]
log p (physchem; pH 2.7): 3.06^[b]
log p (physchem; pH 7.8): 3.88^[c];

CCc1nc(-c2ccc(F)cc2)c(-c2ccnc(NC(=O)C(C)(C)C)c2)s1 [compound 51]
log p (physchem; pH 2.7): 4.18^[b]

CCc1nc(-c2ccc(F)cc2)c(-c2ccnc(NC(=O)COC)c2)s1 [compound 81]
log p (physchem; pH 2.7): 3.17^[b]
log p (physchem; pH 7.8): 3.21^[c];

CCc1nc(-c2ccc(F)cc2)c(-c2ccnc(NC(=O)C3CCCCC3)c2)s1 [compound 54]
log p (physchem; pH 2.7): 4.54^[b]

CCc1nc(-c2ccc(F)cc2)c(-c2ccnc(NCC(C)O)c2)s1 (centres unmarked) [compound 77]
log p (physchem; pH 2.7): 1.44^[b]
log p (physchem; pH 7.8): 2.74^[c];

CCc1nc(-c2ccc(F)cc2)c(-c2ccnc(NS(C)(=O)=O)c2)s1 [compound 91]
log p (physchem; pH 2.7): 2.36^[b]
log p (physchem; pH 7.8): 2.18^[c];

CCc1nc(-c2ccc(F)cc2)c(-c2ccnc(NC(C)CO)c2)s1 (centres unmarked) [compound 71]
log p (physchem; pH 2.7): 1.44^[b]

CCc1nc(-c2ccc(F)cc2)c(-c2ccnc(NC(=O)c3ccc(C)cc3)c2)s1 [compound 50]
log p (physchem; pH 2.7): 4.48^[b]

Fc1ccc(-c2nc(Cc3ccccc3)sc2-c2ccncc2)cc1 [compound 45]
log p (physchem; pH 2.7): 2.94^[b]

Fc1ccc(-c2nc(C(F)F)sc2-c2ccncc2)cc1 [compound 88]
log p (physchem; pH 2.7): 2.48^[b]
log p (physchem; pH 7.8): 3.01^[c];

CCCCc1nc(-c2ccc(F)cc2)c(-c2ccnc(NC(=O)c3ccccc3)c2)s1 [compound 66]
log p (physchem; pH 2.7): 5.07^[b]

Cc1nc(-c2ccc(F)cc2)c(-c2ccncc2)s1 [compound 44]
log p (physchem; pH 2.7): 1.48^[b]

CCNc1cc(-c2sc(CC)nc2-c2ccc(F)cc2)ccn1 [compound 76]
log p (physchem; pH 2.7): 1.54^[b]
log p (physchem; pH 7.8): 3.64^[c];

CCc1nc(-c2ccc(F)cc2)c(-c2ccnc(Nc3ccccc3)c2)s1 [compound 60]
log p (physchem; pH 2.7): 3.1^[b]

CCc1nc(-c2ccc(F)cc2)c(-c2ccncc2)s1 [Ex. 41, 4-[2-Ethyl-4-(4-fluorophenyl)-1,3-thiazol-5-yl]pyridine]
chromatographic logP (physchem; pH 2.3): 2.01
chromatographic logP (physchem; pH 7.8): 2.89
inhibition at 50 µM (Fusarium graminearum): > 70%
inhibition at 50 µM (Fusarium proliferatum): > 70%

CCc1nc(-c2ccc(F)cc2)c(-c2ccnc(N3CCCC3)c2)s1 [compound 64]
log p (physchem; pH 2.7): 2^[b]

CCc1nc(-c2ccc(F)cc2)c(-c2ccnc(C(=O)N(C)CC)c2)s1 [compound 73]
log p (physchem; pH 2.7): 2.81^[b]
log p (physchem; pH 7.8): 2.87^[c];

CCc1nc(-c2ccc(F)cc2)c(-c2ccnc(NC(=O)c3ccc(OC)cc3)c2)s1 [compound 53]
log p (physchem; pH 2.7): 4.04^[b]

CCc1nc(-c2ccc(F)cc2)c(-c2ccnc(NC(=O)OC)c2)s1 [compound 87]
log p (physchem; pH 2.7): 3.14^[b]
log p (physchem; pH 7.8): 3.22^[c];

CCc1nc(-c2ccc(F)cc2)c(-c2ccnc(N(C)C(C)=O)c2)s1 [compound 68]
log p (physchem; pH 2.7): 2.71^[b]

CCCC(=O)Nc1cc(-c2sc(CC)nc2-c2ccc(F)cc2)ccn1 [Ex. 83, N-{4-[2-Ethyl-4-(4-fluorophenyl)-1,3-thiazol-5-yl]pyridin-2-}butanamide]
log p (physchem; pH 2.7): 3.45^[b]
log p (physchem; pH 7.8): 3.58^[c];

CCc1nc(-c2ccc(F)cc2)c(-c2ccnc(C(=O)NC3CC3)c2)s1 [Ex. 75, N-Cyclopropyl-4-[2-ethyl-4-(4-fluorophenyl)-1,3-thiazol-5-yl]pryridine-2-carboxamide]
log p (physchem; pH 2.7): 3.46^[b]
log p (physchem; pH 7.8): 3.5^[c];

C=C(C)C(=O)Nc1cc(-c2sc(CC)nc2-c2ccc(F)cc2)ccn1 [compound 90]
log p (physchem; pH 2.7): 3.6^[b]
log p (physchem; pH 7.8): 3.71^[c];

CCc1nc(-c2ccc(C)c(C)c2)c(-c2ccncc2)s1 [compound 48]
log p (physchem; pH 2.7): 2.49^[b]

C#CCN(C(C)=O)c1cc(-c2sc(CC)nc2-c2ccc(F)cc2)ccn1 [compound 102]
log p (physchem; pH 2.7): 3.03^[b]
log p (physchem; pH 7.8): 3.02^[c];

CCc1nc(-c2ccc(F)cc2)c(-c2ccnc(NCC(F)F)c2)s1 [compound 79]
log p (physchem; pH 2.7): 2.39^[b]
log p (physchem; pH 7.8): 3.76^[c];

CCc1nc(-c2cccs2)c(-c2ccncc2)s1 [compound 103]
log p (physchem; pH 2.7): 1.94^[b]

CCc1nc(-c2ccc(F)cc2)c(-c2ccnc(NCC(C)OC)c2)s1 (centres unmarked) [compound 78]
log p (physchem; pH 2.7): 1.73^[b]
log p (physchem; pH 7.8): 3.67^[c];

CC(C)c1nc(-c2ccc(F)cc2)c(-c2ccncc2)s1 [compound 43]
log p (physchem; pH 2.7): 2.56^[b]
log p (physchem; pH 7.8): 3.71^[c];

CCc1nc(-c2ccc(F)cc2)c(-c2ccnc(NCCc3ccccc3)c2)s1 [compound 62]
log p (physchem; pH 2.7): 2.17^[b]

CCc1nc(-c2ccc(F)cc2)c(-c2ccnc(N)c2)s1 [Ex. 35, 4-[2-Ethyl-4-(4-fluorophenyl)-1,3-thiazol-5-yl]pyridine-2-amine]
chromatographic logP (physchem; pH 2.7): 1.29

O=C(c1ccc(Cl)s1)C(Br)c1ccncc1 (centres unmarked) [2-Bromo-1-(5-chloro-2-thienyl)-2-(pyridin-4-yl)ethanone]
chromatographic logP (physchem; pH 2.7): 2.18

CCc1nc(-c2ccc(F)cc2)c(-c2ccnc(NC(=O)CC(C)C)c2)s1 [compound 99]
log p (physchem; pH 2.7): 3.91^[b]
log p (physchem; pH 7.8): 4.04^[c];

CCc1nc(-c2ccc(F)cc2)c(-c2ccnc(NCc3ccccc3)c2)s1 [Ex. 59, N-Benzyl-4-[2-ethyl-4-(4-fluorophenyl)-1,3-thiazol-5-yl]pyridine-2-amine]
chromatographic logP (physchem; pH 2.7): 2.32

CCc1nc(-c2cccc(C(F)(F)F)c2)c(-c2ccncc2)s1 [compound 49]
log p (physchem; pH 2.7): 3^[b]

CCc1nc(-c2ccc(F)cc2)c(-c2ccnc(N(C(C)=O)C3CC3)c2)s1 [Ex. 80, N-Cyclopropyl-N-{4-[2-ethyl-4-(4-fluorophenyl)-1,3-thiazol-5-yl]pyridin-2-yl}acetamide]
chromatographic logP (physchem; pH 2.7): 2.81
chromatographic logP (physchem; pH 7.8): 2.88

C=CCNc1cc(-c2sc(CC)nc2-c2ccc(F)cc2)ccn1 [compound 74]
log p (physchem; pH 2.7): 1.67^[b]
log p (physchem; pH 7.8): 3.8^[c];

CCc1nc(-c2ccc(F)cc2)c(-c2ccnc(Cl)c2)s1 [Ex. 58, 2-Chloro-4-[2-ethyl-4-(4-fluorophenyl)-1,3-thiazol-5-yl]pyridine]
chromatographic logP (physchem; pH 2.7): 4.07
chromatographic logP (physchem; pH 7.8): 4.1

CCc1nc(-c2ccc(F)cc2)c(-c2ccnc(N(C(=O)OC(C)C)C(=O)OC(C)C)c2)s1 [compound 93]
log p (physchem; pH 2.7): 4.5^[b]
log p (physchem; pH 7.8): 4.49^[c];

CCc1nc(-c2ccc(F)cc2)c(-c2ccnc(N(C(C)=O)C(C)=O)c2)s1 [compound 97]
log p (physchem; pH 2.7): 2.95^[b]
log p (physchem; pH 7.8): 2.95^[c];

CCc1nc(-c2ccc(F)cc2)c(-c2ccnc(NC(=O)c3ccsc3)c2)s1 [compound 57]
log p (physchem; pH 2.7): 3.83^[b]

CCc1nc(-c2ccc(F)cc2)c(-c2ccnc(NC(C)C)c2)s1 [compound 101]
log p (physchem; pH 2.7): 1.73^[b]
log p (physchem; pH 7.8): 4.11^[c];

CCc1nc(-c2ccc(F)cc2)c(-c2ccnc(N(C)C(=O)c3ccccc3)c2)s1 [compound 67]
log p (physchem; pH 2.7): 3.68^[b]

CCCCc1nc(-c2ccc(F)cc2)c(-c2ccncc2)s1 [compound 47]
log p (physchem; pH 2.7): 3.11^[b]

CCc1nc(-c2ccccc2)c(-c2ccnc(NC(=O)c3ccccc3)c2)s1 [compound 69]
log p (physchem; pH 2.7): 3.91^[b]

CCc1nc(-c2ccc(F)cc2)c(-c2ccnc(N(S(C)(=O)=O)S(C)(=O)=O)c2)s1 [compound 92]
log p (physchem; pH 2.7): 3.23^[b]
log p (physchem; pH 7.8): 3.24^[c];

CCOC(=O)Nc1cc(-c2sc(CC)nc2-c2ccc(F)cc2)ccn1 [compound 85]
log p (physchem; pH 2.7): 3.61^[b]
log p (physchem; pH 7.8): 3.69^[c];

CCc1nc(-c2ccc(F)cc2)c(-c2ccnc(NC(=O)c3ccc(F)cc3)c2)s1 [compound 52]
log p (physchem; pH 2.7): 4.18^[b]

CCc1nc(-c2ccc(F)cc2)c(-c2ccnc(NC3CC3)c2)s1 [Ex. 72, N-Cyclopropyl-4-[2-ethyl-4-(4-fluorophenyl)-1,3-thiazol-5-yl]pyridine-2-amine]
chromatographic logP (physchem; pH 2.7): 1.74
chromatographic logP (physchem; pH 7.8): 3.61

CCc1nc(-c2ccc(F)cc2)c(-c2ccnc(NC(=O)OC(C)(C)C)c2)s1 [compound 65]
log p (physchem; pH 2.7): 4.63^[b]

Fc1ccc(-c2nc(C3CC3)sc2-c2ccncc2)cc1 [compound 89]
log p (physchem; pH 2.7): 2.16^[b]
log p (physchem; pH 7.8): 3.32^[c];

CCc1nc(-c2ccc(F)cc2)c(-c2ccnc(NC(=O)CCl)c2)s1 [compound 98]
log p (physchem; pH 2.7): 3.29^[b]
log p (physchem; pH 7.8): 3.32^[c];
